Measurements published in patent US20220402925A1, “COMPOUNDS AND METHODS FOR THE TREATMENT OF CYSTIC FIBROSIS” (Flatley Discovery Lab, LLC, priority 2019, published 2022).

target: T1, F508del CFTR (Homo sapiens, UniProt P13569, DEL508-508); test: Equivalent current assay in primary CF airway epithelial cells (Corrector Activity, NAUC normalized to 3 μM VX809); format: cell-based; details: NAUC as % of positive control (VX-809)
T1 construct: Primary CF airway epithelial cells were obtained from the UNC Cystic Fibrosis Tissue Procurement and Cell Culture Core; host or cells: primary CF airway epithelial cells
T1 sequence (P13569 with tags, fused parts or gaps DEL508-508): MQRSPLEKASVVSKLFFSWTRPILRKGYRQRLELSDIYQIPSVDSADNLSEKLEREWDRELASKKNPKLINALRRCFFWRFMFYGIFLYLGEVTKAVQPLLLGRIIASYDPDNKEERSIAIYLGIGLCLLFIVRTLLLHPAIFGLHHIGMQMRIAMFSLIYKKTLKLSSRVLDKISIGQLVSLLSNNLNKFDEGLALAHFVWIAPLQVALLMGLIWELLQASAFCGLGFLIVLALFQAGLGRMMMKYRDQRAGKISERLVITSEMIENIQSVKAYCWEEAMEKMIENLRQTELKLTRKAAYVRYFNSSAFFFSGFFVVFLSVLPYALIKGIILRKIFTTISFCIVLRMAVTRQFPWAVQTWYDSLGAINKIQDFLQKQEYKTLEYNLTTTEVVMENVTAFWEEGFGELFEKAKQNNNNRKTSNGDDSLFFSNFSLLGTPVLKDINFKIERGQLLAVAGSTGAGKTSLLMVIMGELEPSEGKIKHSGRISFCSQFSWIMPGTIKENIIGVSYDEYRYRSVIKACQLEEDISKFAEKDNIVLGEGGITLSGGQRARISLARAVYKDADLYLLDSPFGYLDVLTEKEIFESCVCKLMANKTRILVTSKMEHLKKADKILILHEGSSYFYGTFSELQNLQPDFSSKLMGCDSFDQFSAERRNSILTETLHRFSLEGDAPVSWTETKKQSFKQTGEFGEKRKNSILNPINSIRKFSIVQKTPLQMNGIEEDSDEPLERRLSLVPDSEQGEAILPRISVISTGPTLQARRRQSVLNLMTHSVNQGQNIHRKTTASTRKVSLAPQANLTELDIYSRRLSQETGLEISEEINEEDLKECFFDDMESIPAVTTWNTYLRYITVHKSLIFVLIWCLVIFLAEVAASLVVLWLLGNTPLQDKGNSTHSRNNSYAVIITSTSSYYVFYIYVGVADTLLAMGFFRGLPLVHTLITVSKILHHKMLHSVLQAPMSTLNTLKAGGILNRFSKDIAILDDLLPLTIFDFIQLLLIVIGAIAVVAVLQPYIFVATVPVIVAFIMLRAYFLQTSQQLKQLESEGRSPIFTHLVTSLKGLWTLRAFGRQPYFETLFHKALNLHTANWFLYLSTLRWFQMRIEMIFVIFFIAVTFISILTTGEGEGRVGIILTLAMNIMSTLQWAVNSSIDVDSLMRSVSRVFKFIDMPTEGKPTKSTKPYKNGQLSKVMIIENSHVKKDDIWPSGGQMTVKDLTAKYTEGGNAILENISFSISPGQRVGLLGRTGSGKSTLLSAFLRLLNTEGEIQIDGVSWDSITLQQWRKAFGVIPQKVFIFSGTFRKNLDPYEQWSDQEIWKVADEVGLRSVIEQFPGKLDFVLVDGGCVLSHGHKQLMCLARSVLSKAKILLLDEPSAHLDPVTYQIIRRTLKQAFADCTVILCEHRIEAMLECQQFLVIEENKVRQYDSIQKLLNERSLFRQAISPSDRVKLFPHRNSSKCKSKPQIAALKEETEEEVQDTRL
Outline: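 Differentiated primary CF airway cells treated basolaterally 24 h at 37° C with compound (0.1% DMSO). Equivalent current recorded after 5 μM benzamil, stimulation with 10 μM forskolin plus 1 μM VX-770 or 3 μM FDL176, and block by 20 μM CFTR-172; vehicle-subtracted AUC normalized to 3 μM VX809; EC50 from sigmoid fit, Hill slope 1.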

| SMILES | Corr Activity (NAUC) |
| --- | --- |
| CCN(C(=O)Cn1nc(-c2cc(C)cc(C#N)c2)c2oc(C(=O)NC(C)(C)C(F)(F)F)cc2c1=O)c1cc2c(cc1C)OC(F)(F)O2 [Example 151] | +++ (NAUC>70% of positive control) |
| CN(C(=O)Cn1nc(-c2cccc(C#N)c2)c2oc(Cl)cc2c1=O)c1ccc2c(c1)OC(F)(F)O2 [Example 64] | ++ (NAUC 70-40% of positive control) |
| O=C(Cn1nc(-c2cccc(F)c2)c2[nH]cnc2c1=O)N1CCCc2c1ccc1c2OC(F)(F)O1 [Example 373] | +++ (NAUC>70% of positive control) |
| CCN(C(=O)Cn1nc(-c2cc(C#N)cc(C(C)(C)C)c2)c2occc2c1=O)c1ccc2c(c1)OC(F)(F)O2 [Example 111] | +++ (NAUC>70% of positive control) |
| CCN(C(=O)Cn1nc(-c2cc(Cl)cc(Cl)c2)c2oc(C3CCC3)cc2c1=O)c1ccc2c(c1)OC(F)(F)O2 [Example 234] | ++ (NAUC 70-40% of positive control) |
| CN(C(=O)Cn1nc(-c2cccc(C#N)c2)c2oc(CN3CCOCC3)cc2c1=O)c1ccc2c(c1)OC(F)(F)O2 [Example 199] | + (NAUC<40% of positive control) |
| CN(C(=O)Cn1nc(-c2cccc(Cl)c2)c2oc(C(=O)N3CCCC3)cc2c1=O)c1ccc2c(c1)OC(F)(F)O2 [Example 65, 2-(7-(3-chlorophenyl)-4-oxo-2-(pyrrolidine-1-carbonyl)furo[2,3-d]pyridazin-5(4H)-yl)-N-(2,2-difluorobenzo[d][1,3]dioxol-5-yl)-N-methylacetamide] | + (NAUC<40% of positive control) |
| CCN(C(=O)Cn1nc(-c2cc(Cl)cc(OC)c2)c2[nH]cnc2c1=O)c1ccc2c(c1)OC(F)(F)O2 [Example 257] | +++ (NAUC>70% of positive control) |
| CCN(C(=O)Cn1nc(-c2cc(Cl)cc(OC)c2)c2oc(C3CCC3)cc2c1=O)c1ccc2c(c1)OC(F)(F)O2 [Example 240] | + (NAUC<40% of positive control) |
| N#Cc1cc(-c2nn(CC(=O)N(c3ccc4c(c3)OC(F)(F)O4)C3CC3)c(=O)c3nc[nH]c23)ccc1N1CCCC1 [Example 470] | +++ (NAUC>70% of positive control) |
| CCN(C(=O)Cn1nc(-c2ccc(C(=O)OC)c(Cl)c2)c2[nH]cnc2c1=O)c1ccc2c(c1)OC(F)(F)O2 [Example 316] | ++ (NAUC 70-40% of positive control) |
| CC(C)(C)NC(=O)c1cc2c(=O)n(CC(=O)N3CCCc4c3ccc3c4OC(F)(F)O3)nc(-c3cccc(C#N)c3)c2o1 [Example 129] | ++ (NAUC 70-40% of positive control) |
| Cc1c(N(C)C(=O)Cn2nc(-c3cc(F)cc(C#N)c3)c3occc3c2=O)ccc2c1OC(F)(F)O2 [Example 170] | ++ (NAUC 70-40% of positive control) |
| CCN(C(=O)Cn1nc(-c2ccc(-c3ccccc3)c(F)c2)c2[nH]cnc2c1=O)c1ccc2c(c1)OC(F)(F)O2 [Example 319] | + (NAUC<40% of positive control) |
| O=C(Cn1nc(-c2cc(Cl)cc(CO)c2)c2[nH]cnc2c1=O)N(c1ccc2c(c1)OC(F)(F)O2)C1CC1 [Example 405] | + (NAUC<40% of positive control) |
| CN(C(=O)Cn1nc(-c2cc(C#N)cc(C(F)(F)F)c2)c2oc(C(=O)NC(C)(C)C)cc2c1=O)c1ccc2c(c1)OC(F)(F)O2 [Example 143] | ++ (NAUC 70-40% of positive control) |
| CCN(C(=O)Cn1nc(-c2cc(C#N)cc(C(F)(F)F)c2)c2oc(C(=O)NC(C)(C)C)cc2c1=O)c1ccc2c(c1)OC(F)(F)O2 [Example 144] | +++ (NAUC>70% of positive control) |
| CCN(C(=O)Cn1nc(-c2ccc(C(=O)NCc3ccccc3)c(Cl)c2)c2[nH]cnc2c1=O)c1ccc2c(c1)OC(F)(F)O2 [Example 330] | + (NAUC<40% of positive control) |
| CCN(C(=O)Cn1nc(-c2cc(C#N)cc(C(C)(C)C)c2)c2[nH]cnc2c1=O)c1ccc2c(c1)OC(F)(F)O2 [Example 245] | +++ (NAUC>70% of positive control) |
| CCN(C(=O)Cn1nc(-c2cccc(C#N)c2)c2occc2c1=O)c1ccc(C(F)(F)F)cc1 [Example 61] | + (NAUC<40% of positive control) |
| CCN(C(=O)Cn1nc(-c2cc(O)cc(OC(F)(F)F)c2)c2[nH]cnc2c1=O)c1ccc2c(c1)OC(F)(F)O2 [Example 284] | + (NAUC<40% of positive control) |
| CCN(C(=O)Cn1nc(-c2ccc(Cl)c(OC)c2)c2[nH]cnc2c1=O)c1ccc2c(c1)OC(F)(F)O2 [Example 329] | + (NAUC<40% of positive control) |
| CN(C(=O)Cn1nc(-c2cccc(Cl)c2)c2oc(C(=O)NC(C)(C)C)cc2c1=O)c1ccc2c(c1)OC(F)(F)O2 [Example 205, N-(tert-butyl)-7-(3-chlorophenyl)-5-(2-((2,2-difluorobenzo[d][1,3]dioxol-5-yl)(methyl)amino)-2-oxoethyl)-4-oxo-4,5-dihydrofuro[2,3-d]pyridazine-2-carboxamide] | +++ (NAUC>70% of positive control) |

| SMILES | Corr Activity (NAUC) |
| --- | --- |
| CCN(C(=O)Cn1nc(-c2cccc(C#N)c2)c2oc(C(F)F)cc2c1=O)c1ccc2c(c1)OC(F)(F)O2 [Example 187] | +++ (NAUC>70% of positive control) |
| Cc1nc2ccc(N(C)C(=O)Cn3nc(-c4cccc(F)c4)c4sccc4c3=O)cc2o1 [Example 1, 2-(7-(3-Fluorophenyl)-4-oxothieno[2,3-d]pyridazin-5(4H)-yl)-N-methyl-N-(2-methylbenzo[d]oxazol-6-yl)acetamide] | +++ (NAUC>70% of positive control) |
| Cc1cc(-c2nn(CC(=O)N(c3ccc4c(c3)OC(F)(F)O4)C3CC3)c(=O)c3nc[nH]c23)cc(C(F)(F)F)c1 [Example 402] | ++ (NAUC 70-40% of positive control) |
| CN(C(=O)Cn1nc(-c2cccc(Cl)c2)c2cn[nH]c2c1=O)c1ccc2c(c1)OC(F)(F)O2 [Example 498] | + (NAUC<40% of positive control) |
| Cc1cc2c(=O)n(CC(=O)N(C)c3ccc4c(c3)OC(F)(F)O4)nc(-c3cc(Cl)cc(C#N)c3)c2o1 [Example 72] | +++ (NAUC>70% of positive control) |
| O=C(Cn1nc(-c2ccc(OCC3CC3)c(Cl)c2)c2[nH]cnc2c1=O)N(c1ccc2c(c1)OC(F)(F)O2)C1CC1 [Example 465] | ++ (NAUC 70-40% of positive control) |
| CCN(C(=O)Cn1nc(-c2cc(F)cc(OC)c2)c2occc2c1=O)c1ccc2c(c1)OC(F)(F)O2 [Example 47] | +++ (NAUC>70% of positive control) |
| N#Cc1cc(-c2nn(CC(=O)N(c3ccc4c(c3)OC(F)(F)O4)C3CC3)c(=O)c3nc[nH]c23)ccc1N1CCCCC1 [Example 491] | ++ (NAUC 70-40% of positive control) |
| CCN(C(=O)Cn1nc(-c2ccc(OC(F)(F)F)c(C#N)c2)c2[nH]cnc2c1=O)c1ccc2c(c1)OC(F)(F)O2 [Example 365] | +++ (NAUC>70% of positive control) |
| CN(C(=O)Cn1nc(-c2cccc(F)c2)c2cn[nH]c2c1=O)c1ccc2c(c1)OC(F)(F)O2 [Example 497] | + (NAUC<40% of positive control) |
| CCN(C(=O)Cn1nc(-c2cc(Cl)cc(OC)c2)c2oc(C3CC3)cc2c1=O)c1ccc2c(c1)OC(F)(F)O2 [Example 227] | +++ (NAUC>70% of positive control) |
| N#Cc1cccc(-c2nn(CC(=O)N3CCCc4c3ccc3c4OC(F)(F)O3)c(=O)c3nc[nH]c23)c1 [Example 375] | +++ (NAUC>70% of positive control) |
| O=C(Cn1nc(-c2ccc3c(ccn3S(=O)(=O)c3ccccc3)c2)c2[nH]cnc2c1=O)N(c1ccc2c(c1)OC(F)(F)O2)C1CC1 [Example 423] | + (NAUC<40% of positive control) |
| CC(C)(C)NC(=O)c1cc2c(=O)n(CC(=O)N3CCCc4c3ccc3c4OC(F)(F)O3)nc(-c3cccc(Cl)c3)c2o1 [Example 128] | ++ (NAUC 70-40% of positive control) |
| CC(C)Oc1cc(-c2nn(CC(=O)N(c3ccc4c(c3)OC(F)(F)O4)C3CC3)c(=O)c3nc[nH]c23)cc(C(F)(F)F)c1 [Example 377] | + (NAUC<40% of positive control) |
| CCN(C(=O)Cn1nc(-c2ccc3c(c2)OC(F)(F)O3)c2[nH]cnc2c1=O)c1ccc2c(c1)OC(F)(F)O2 [Example 311] | + (NAUC<40% of positive control) |
| COc1cc(C)cc(-c2nn(CC(=O)N(c3ccc4c(c3)OC(F)(F)O4)C3CC3)c(=O)c3nc[nH]c23)c1 [Example 395] | + (NAUC<40% of positive control) |
| CCN(C(=O)Cn1nc(-c2cc(Cl)cc(C#N)c2)c2oc(C(F)F)cc2c1=O)c1ccc2c(c1)OC(F)(F)O2 [Example 192] | +++ (NAUC>70% of positive control) |
| CCN(C(=O)Cn1nc(-c2ccc(CC#N)c(OC)c2)c2[nH]cnc2c1=O)c1ccc2c(c1)OC(F)(F)O2 [Example 357] | + (NAUC<40% of positive control) |
| Cc1cc2c(cc1N(C)C(=O)Cn1nc(-c3cc(Cl)cc(C#N)c3)c3oc(C(=O)NC(C)(C)C)cc3c1=O)OC(F)(F)O2 [Example 138] | +++ (NAUC>70% of positive control) |
| CCN(C(=O)Cn1nc(-c2cc(C#N)cc(C(F)F)c2)c2occc2c1=O)c1ccc2c(c1)OC(F)(F)O2 [Example 99] | +++ (NAUC>70% of positive control) |
| O=C(Cn1nc(-c2cccc(F)c2)c2[nH]cnc2c1=O)N(c1ccc2c(c1)OC(F)(F)O2)C1CC1 [Example 370] | + (NAUC<40% of positive control) |
